Measurements published in patent publication US20130065227A1, “METHODS OF INCREASING MACROPINOCYTOSIS IN CANCER CELLS” (priority 2010, published 2013).

How the values were obtained:
DU145 cells [1] = test: Uptake of fluorophore-labeled oligonucleotides by flow cytometry; assay type: cell-based
Method: (§1) FIG. 1 are graphs showing that AS1411 cell internalization is an active process. Cells were plated 18 h before uptake analysis. After incubation as described, cells were washed with ice-cold PBS, incubated with 1 μg/ml 7-AAD, harvested and resuspended in 1% paraformaldehyde containing 2 μg/ml actinomycin D, then analyzed by flow cytometry. (Panel A) DU145 cells were incubated at 37° C. with fresh complete DMEM medium containing 10 μM FL-AS1411 (black line) or 10 μM FL-CRO (gray line) for the time indicated. (Panel B) DU145 cells were incubated for 2 h at 37° C. in complete or serum-free DMEM medium containing 10 μM FL-AS1411, or 10 μM FL-CRO, or no oligonucleotide. (Panel C) Various cell lines were incubated with 10 μM FL-AS1411 (black outline histogram), 10 μM FL-CRO (gray outline histogram) or without DNA (solid gray histogram) at 37° C. or 4° C. for 2 h. All experiments were repeated at least three times. Data are mean of three independent samples; bars, SE; *(p<0.05).
(§2) FIG. 2 are graphs showing that AS1411 is internalized by different endocytic mechanisms in DU145 cancer cells and in non-malignant Hs27 cells. DU145 or Hs27 cells were plated 18 h before uptake analysis. Cells were pre-treated as described with inhibitor (gray histogram) or the corresponding vehicle control (black histogram) before addition of 10 μM FL-AS1411 and incubation at 37° C. for 2 h. After incubation, cells were harvested and analyzed by flow cytometry. Pre-treatment conditions were at 37° C. with: (Panel A) 5 μM Cytochalasin D for 30 min; (Panel B) 80 μM Dynasore for 30 min; or (Panel C) 3 mM amiloride for 1 h. All experiments were repeated at least three times and representative data are shown. Solid gray histograms represent background autofluorescence of unstained cells.
DU145 cells were transfected for 48 h without siRNA (mock, M), or with 30 nM of one of three different nucleolin siRNAs (NCL1, NCL2, NCL3) or a control siRNA (scramble, S), or contransfected with 10 nM of each nucleolin siRNAs (mix). (Panel A) Cells were lysed and total cell lyses were analyzed by Western blotting using the antibodies shown. (Panel B) Cell-surface proteins from intact transfected DU145 cells were labeled covalently with membrane-impermeable biotinylating agent. Cells were lysed, then biotinylated plasma membrane proteins were captured with streptavidin-agarose beads and analyzed by blotting with anti-nucleolin antibody (upper panel). After stripping, the membrane was reprobed with antibodies for a plasma membrane marker (anti-pan Cadherin) and a nuclear marker (anti-histone 3) to confirm the fractionation. Total lysate (Lys) was used as control. (Panel C) The medium of transfected cells was replaced by fresh complete DMEM medium containing no oligonucleotide (gray dashed histogram) or 10 μM FL-CRO (gray solid line histogram) or 10 μM FL-AS1411 (black solid line histogram) and incubated at 37° C. for 2 h. After incubation, cells were harvested and analyzed by flow cytometry.
DU145 cells were plated 18 hr before uptake analysis. Cell medium was changed with fresh complete DMEM medium containing different concentrations of FL-AS1411 (black line) or FL-CRO (gray line), and incubated at 37° C. for 2 hrs. After incubation, cells were harvested and analyzed by flow cytometry.
FIG. 9 are graphs showing the effects of inhibitors on various endocytic pathways. DU145 or Hs27 cells were plated 18 hr before uptake analysis. (Panel A) DU145 cells were pre-treated with dynamin inhibitor, […] Dynasore (black histogram) or DMSO (gray histogram) for 30 min at 37° C. After pre-treatment, cells were treated with […] transferrin conjugated with Alexa Fluor 488 for 30 min at 37° C. (Panel B) DU145 and Hs27 cells were pre-treated with 3 mM amiloride (black histogram) or vehicle (serum-free medium, gray histogram) for 1 h at 37° C. After pre-treatment, FL-CRO was added at a concentration of 10 μM and incubated at 37° C. for 2 h. After incubation, cells were harvested and analyzed by FACS. […]

[2] = system: cancer cells (DU145, HeLa, MDA-MB-231) and non-malignant Hs27 skin fibroblasts; test: Temperature-dependence of oligonucleotide uptake by flow cytometry; assay type: cell-based; conditions: 10 μM, 37° C. or 4° C. for 2 h, all cell types
Method: as §1, with “*(p<0.05). […]” for “*(p<0.05).”
To determine whether AS1411 uptake occurs through an active uptake process, the temperature-dependence of AS1411 uptake in cancer cells (DU145, HeLa, MDA-MB-231) and non-malignant Hs27 skin fibroblasts was evaluated using flow cytometry. […]

DU145 cells [3] = test: Confocal microscopy localization and co-localization; assay type: cell-based
Method: (§3) FIG. 3 are photographs showing that AS1411 co-localizes with the macropinocytic marker, dextran. DU145 or Hs27 cells were incubated with the reagents indicated, then washed and fixed. Nuclei were stained with DAPI (blue). The distribution of markers was visualized by confocal microscopy and fluorescent images were overlaid to determine co-localization as indicated by the yellow color. (Panel A) 10 μM AS1411 labeled with Alexa Fluor 488 (green) and 0.2 mg/ml dextran-10K, macropinocytic marker, labeled with Alexa Fluor 594 (red) for 2 h at 37° C. (Panel B) Experiments similar to those in Panel A but using FL-CRO in place of FL-AS1411. (Panel C) Cells incubated with 5 μg/ml transferrin labeled with Alexa Fluor 488 (green) and 0.2 mg/ml dextran-10K labeled with Alexa Fluor 594 (red) for 30 min at 37° C. (Panel D) DU145 cells incubated with 5 μg/ml transferrin labeled with Alexa Fluor 594 (red) and 10 μM AS1411 labeled with Alexa Fluor 488 (green) for 30 min at 37° C. Scale bars, 10 μm.
Cells (4×10^4) in fresh supplemented culture medium were plated on 18 mm diameter glass cover slips for 18 h. The media was removed and replaced with serum-free medium containing 10 μM oligodeoxynucleotide, dextran-10K, or transferrin and incubated as describe in the Description of the Drawings. After incubation, cells were washed 3 times with ice-cold PBS, fixed in 4% paraformaldehyde in PBS for 30 min at room temperature, and washed three times with PBS. After washing, the cover slips were mounted on glass slides with ProLong Antifade (Molecular Probes) according to the manufacturer's directions to inhibit photobleaching. Immunofluorescence was documented with an LSM 510 inverted confocal laser-scanning microscope (Carl Zeiss, Oberkochen, Germany) equipped with an Omnichrome argon-krypton laser. Images were obtained with a Zeiss Plan-Apo 63× oil immersion objective (1.4 NA).

Hs27 cells [4] = test: as above; assay type: cell-based, human; conditions: 10 μM, 0.2 mg/ml dextran-10K, 2 h at 37° C.
Method: as §3
Cells (4×10^4) in fresh supplemented culture medium were plated on 18 mm diameter glass cover slips for 18 h. The media was removed and replaced with serum-free medium containing 10 μM oligodeoxynucleotide, dextran-10K, or transferrin and incubated as describe in the Description of the Drawings. […]

Hs27 cells [5] = test: Uptake of fluorophore-labeled oligonucleotides by flow cytometry; assay type: cell-based, human; conditions: 80 μM dynasore, then 10 μM FL-AS1411 2 h
Method: as §1, §2
(§4) FIG. 9 are graphs showing the effects of inhibitors on various endocytic pathways. DU145 or Hs27 cells were plated 18 hr before uptake analysis. (Panel A) DU145 cells were pre-treated with dynamin inhibitor, […] Dynasore (black histogram) or DMSO (gray histogram) for 30 min at 37° C. After pre-treatment, cells were treated with […] transferrin conjugated with Alexa Fluor 488 for 30 min at 37° C. (Panel B) DU145 and Hs27 cells were pre-treated with 3 mM amiloride (black histogram) or vehicle (serum-free medium, gray histogram) for 1 h at 37° C. After pre-treatment, FL-CRO was added at a concentration of 10 μM and incubated at 37° C. for 2 h. After incubation, cells were harvested and analyzed by FACS. Gray solid histogram represents unstained cells.
To analyze uptake of the oligodeoxynucleotides or dextran-10K (macropinocytic marker) by flow cytometry, 2×10^5 cells in fresh supplemented culture medium (2.5 ml) were plated into 6-well plates for 18 h. […]

DU145 cells [6] = test: Transferrin uptake (clathrin-dependent endocytosis) by flow cytometry; assay type: cell-based; set-up: dose or concentration left out as unconfirmed; conditions: for 30 min, transferrin-Alexa Fluor 488 for 30 min
Method: as §4
To confirm that uptake of AS1411 occurs by endocytosis, the involvement of the actin cytoskeleton, which has been implicated in regulating endocytic pathways, was evaluated. To this end, DU145 and Hs27 cells were pre-treated with an actin polymerization inhibitor. 5 μM cytochalasin D, and assessed for FL-AS1411 uptake by flow cytometry. […]

[7] = 10 μM, 37° C., complete DMEM medium

Molecule	earliest time at which uptake was detected (DU145 cells [1]; [7])	time after which uptake is decreasing (DU145 cells [1]; [7])	serum dependence of uptake (DU145 cells [1]; 10 μM, 2 h at 37° C., complete or serum-free DMEM medium)	temperature dependence of uptake [2]	co-localization with the macropinocytic marker, dextran (DU145 cells [3]; 10 μM, 0.2 mg/ml dextran-10K, 2 h at 37° C.)	subcellular localization (DU145 cells [3]; confocal microscopy, cancer and non-malignant cells)	co-localization with the macropinocytic marker, dextran (Hs27 cells [4])	effect of pre-treatment on FL-AS1411 uptake (DU145 cells [1]; 80 μM dynasore, then 10 μM FL-AS1411 2 h)	effect of pre-treatment on FL-AS1411 uptake (Hs27 cells [5])	effect of pre-treatment on uptake of transferrin (DU145 cells [6])
5′-Fluor-d(TTTGGTGGTGGTGGTTGTGGTGGTGGTGG) [FL-AS1411]	5 min	> 8 h	independent of the presence of serum	strong temperature dependence	strongly co-localized	localized in confined structures in the cytoplasm	not in Hs27 cells	–	–	–
O=C(N/N=C/c1ccc(O)c(O)c1)c1cc2ccccc2cc1O [dynasore]	–	–	–	–	–	–	–	slightly increased the uptake of FL-AS1411	decreased the uptake of AS1411	inhibited
